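Values below derive from 48-hour exposures of cells grown in 96-well plates, with endpoints linearly interpolated between the two concentrations bracketing the appropriate inhibition level. Abbreviation: GI50, concentration required for 50% inhibition of growth.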 Activity calls are given as the source filed them. No stated cut-off is given here; in the data, active = GI50 up to about 1.1 µM and inactive = higher.
Key:
Assay in all cases: NCI-60 cell line screen, 48 h
SK-MEL-28 = tested on: SK-MEL-28
NCI/ADR-RES = tested on: NCI/ADR-RES
SW-620 = tested on: SW-620
Hs-578T = tested on: Hs-578T
A549 = tested on: A549
786-0 = tested on: 786-0
T47D = tested on: T47D
SNB-75 = tested on: SNB-75
SN12C = tested on: SN12C
MDA-MB-435 = tested on: MDA-MB-435
OVCAR-3 = tested on: OVCAR-3
M14 = tested on: M14
SF-539 = tested on: SF-539
NCI-H522 = tested on: NCI-H522
EKVX = tested on: EKVX
HCT-116 = tested on: HCT-116
SNB-19 = tested on: SNB-19
HOP-92 = tested on: HOP-92
SK-OV-3 = tested on: SK-OV-3
MDA-MB-231 = tested on: MDA-MB-231

| SMILES | GI50 (SK-MEL-28) | GI50 (NCI/ADR-RES) | GI50 (SW-620) | GI50 (Hs-578T) | GI50 (A549) | GI50 (786-0) | GI50 (T47D) | GI50 (SNB-75) | GI50 (SN12C) | GI50 (MDA-MB-435) | GI50 (OVCAR-3) | GI50 (M14) | GI50 (SF-539) | GI50 (NCI-H522) | GI50 (EKVX) | GI50 (HCT-116) | GI50 (SNB-19) | GI50 (HOP-92) | GI50 (SK-OV-3) | GI50 (MDA-MB-231) |
| --- | --- | --- | --- | --- | --- | --- | --- | --- | --- | --- | --- | --- | --- | --- | --- | --- | --- | --- | --- | --- |
| COc1cc(OC)c(C2c3cc4c(cc3OC(N3CCOCC3)C2C)OCO4)c(OC)c1 (stereo not drawn) | > 100 µM (inactive) | 34.8 µM (inactive) | 23.4 µM (inactive) | 2.45 µM (inactive) | 45.9 µM (inactive) | 40.7 µM (inactive) | 17.7 µM (inactive) | 16.4 µM (inactive) | 67 µM (inactive) | 38.7 µM (inactive) | 7.29 µM (inactive) | 53.1 µM (inactive) | 12.3 µM (inactive) | > 100 µM (inactive) | 80.5 µM (inactive) | 7.4 µM (inactive) | 28.7 µM (inactive) |  |  |  |
| Cn1ccnc1S/C(=C\C=C(C#N)C#N)c1ccc(Cl)cc1 | 4.06 µM (inactive) | 2.22 µM (inactive) | 0.303 µM (active) | 4.38 µM (inactive) | 6.27 µM (inactive) | 1.33 µM (inactive) | 4.42 µM (inactive) | 5.37 µM (inactive) | 1.09 µM (active) | 0.951 µM (active) | 2.22 µM (inactive) | 0.993 µM (active) | 1.21 µM (inactive) | 2.45 µM (inactive) | 7.89 µM (inactive) | 0.324 µM (active) | 3.48 µM (inactive) | 1.31 µM (inactive) | 8.07 µM (inactive) |  |
| O=S1(=O)OCCOS(=O)(=O)C1Cc1nc2ccccc2[nH]1 | 97.1 µM (inactive) | 30.3 µM (inactive) |  |  | 44.6 µM (inactive) | 39.7 µM (inactive) |  |  | 35.2 µM (inactive) | 51.2 µM (inactive) | 45.8 µM (inactive) | 44.8 µM (inactive) |  |  | > 100 µM (inactive) | 23 µM (inactive) | 37.2 µM (inactive) | 0.114 µM (active) |  | 43 µM (inactive) |
| CC[N+](C)(CC)CCNC(=O)C(O)(c1ccccc1)c1ccccc1 | > 100 µM (inactive) | > 100 µM (inactive) | > 100 µM (inactive) |  | > 100 µM (inactive) | > 100 µM (inactive) |  | 35.6 µM (inactive) | > 100 µM (inactive) |  | > 100 µM (inactive) | > 100 µM (inactive) | > 100 µM (inactive) | > 100 µM (inactive) | > 100 µM (inactive) | > 100 µM (inactive) | > 100 µM (inactive) | > 100 µM (inactive) | > 100 µM (inactive) |  |
| CC(=O)Oc1ccc2c(C)cc(=O)oc2c1OC(C)=O | 33.9 µM (inactive) | 24.2 µM (inactive) | 30.7 µM (inactive) | 24.2 µM (inactive) | 38.4 µM (inactive) | 37.2 µM (inactive) |  | 27 µM (inactive) | 57.8 µM (inactive) | 63.4 µM (inactive) | 40.4 µM (inactive) | 39.1 µM (inactive) | > 100 µM (inactive) |  | 48 µM (inactive) | 32.7 µM (inactive) | 41.3 µM (inactive) |  | > 100 µM (inactive) | 48.9 µM (inactive) |
| COc1cc(/C=C(\C#N)c2ccccn2)cc(Br)c1O | 26.8 µM (inactive) | 20.9 µM (inactive) | 18.4 µM (inactive) |  | 58.6 µM (inactive) | 68.7 µM (inactive) |  | 37 µM (inactive) | 45.2 µM (inactive) |  | 31.8 µM (inactive) | 34.2 µM (inactive) | 31.3 µM (inactive) | 27.5 µM (inactive) | 97.5 µM (inactive) | > 100 µM (inactive) | 39 µM (inactive) |  | 55.1 µM (inactive) |  |
| N#Cc1c(-c2ccc(Cl)cc2)c(C#N)c(=O)n(NS(=O)(=O)c2ccccc2)c1S |  | 21.2 µM (inactive) | 26.2 µM (inactive) |  | 29.4 µM (inactive) | 17.2 µM (inactive) |  | 28.7 µM (inactive) | 25.2 µM (inactive) | 23.5 µM (inactive) | 23.1 µM (inactive) | 26.7 µM (inactive) | 18.3 µM (inactive) | 18.2 µM (inactive) | 32.6 µM (inactive) | 25.5 µM (inactive) |  | 44.7 µM (inactive) | 87.5 µM (inactive) | 26.7 µM (inactive) |
| O=C1Nc2ccccc2C(=O)/C1=C/NC(=S)NCc1ccccc1 | > 100 µM (inactive) | > 100 µM (inactive) | > 100 µM (inactive) |  | > 100 µM (inactive) | > 100 µM (inactive) | > 100 µM (inactive) | > 100 µM (inactive) | > 100 µM (inactive) | 98.2 µM (inactive) | > 100 µM (inactive) | > 100 µM (inactive) | > 100 µM (inactive) |  | > 100 µM (inactive) | > 100 µM (inactive) | > 100 µM (inactive) | > 100 µM (inactive) | > 100 µM (inactive) | > 100 µM (inactive) |
| O=C(CC(=O)n1nc(-c2ccccc2)c(/N=N/c2ccccc2C(=O)O)c1-c1ccccc1)Nc1ccc(Cl)cc1 | 52.8 µM (inactive) |  | 63.8 µM (inactive) | 35.6 µM (inactive) | 34.1 µM (inactive) | 36.1 µM (inactive) | 9.77 µM (inactive) | 27.9 µM (inactive) |  |  |  | 55.8 µM (inactive) |  |  | 30.7 µM (inactive) | 17.9 µM (inactive) | 21.7 µM (inactive) | 5.9 µM (inactive) |  | 33.3 µM (inactive) |
| COC1=CC(=Nc2c(Cl)cc(Cl)cc2OC(=O)c2ccc([N+](=O)[O-])cc2)C=C(OC)C1=O | 16.7 µM (inactive) |  | 13.5 µM (inactive) |  | 9.77 µM (inactive) | 14.8 µM (inactive) |  | 14.2 µM (inactive) | 11.8 µM (inactive) |  | 8.67 µM (inactive) | 13 µM (inactive) | 5.81 µM (inactive) | 9.23 µM (inactive) | 16 µM (inactive) | 6.53 µM (inactive) | 16.4 µM (inactive) | 5.62 µM (inactive) | 16.5 µM (inactive) |  |
| COc1ccc(C2N(c3ccc(C)c(N=C=O)c3)C(=O)N3C(c4ccc(OC)cc4)N(c4ccc(C)c(N=C=O)c4)C(=O)N23)cc1 (stereo not drawn) | > 100 µM (inactive) | > 100 µM (inactive) | > 100 µM (inactive) |  | > 100 µM (inactive) | > 100 µM (inactive) |  | 37.7 µM (inactive) | > 100 µM (inactive) | > 100 µM (inactive) | > 100 µM (inactive) | 29.1 µM (inactive) | > 100 µM (inactive) |  | > 100 µM (inactive) | > 100 µM (inactive) | > 100 µM (inactive) | 83.2 µM (inactive) |  | > 100 µM (inactive) |
| CC1=Cc2cccc(C)c2C(=O)C1=O [O-HIBISCANONE] | 16 µM (inactive) |  | 1.28 µM (inactive) |  | 6.81 µM (inactive) | 2.88 µM (inactive) |  | 15.8 µM (inactive) | 19.5 µM (inactive) |  | 4.37 µM (inactive) | 4.67 µM (inactive) | 6.56 µM (inactive) | 4.72 µM (inactive) | 8.11 µM (inactive) | 2.73 µM (inactive) | 19.8 µM (inactive) | 1.49 µM (inactive) | 18.5 µM (inactive) |  |
| CCn1c2c(c3ccccc31)[C@@H](c1ccc(Cl)cc1)CC1C(=O)N(c3ccccc3)C(=O)C21 (stereo partly drawn) | > 100 µM (inactive) |  | > 100 µM (inactive) |  | > 100 µM (inactive) | > 100 µM (inactive) |  | 71.9 µM (inactive) | 75.5 µM (inactive) |  | 55 µM (inactive) | > 100 µM (inactive) | 31.8 µM (inactive) | 80.2 µM (inactive) | > 100 µM (inactive) | 37.6 µM (inactive) | > 100 µM (inactive) | 27.7 µM (inactive) | > 100 µM (inactive) |  |
| CC(C)=C1CCC(CN2CCOCC2)C1=O (stereo not drawn) | 14.9 µM (inactive) | 13.3 µM (inactive) | 1.76 µM (inactive) | 28.2 µM (inactive) | 20.4 µM (inactive) | 3.79 µM (inactive) |  | 4.72 µM (inactive) | 8.59 µM (inactive) | 15.3 µM (inactive) | 8.18 µM (inactive) | 3.52 µM (inactive) | 17.4 µM (inactive) | 0.0454 µM (active) | 17.7 µM (inactive) | 4.43 µM (inactive) | 60.5 µM (inactive) | 3.95 µM (inactive) | > 100 µM (inactive) | 17.4 µM (inactive) |
| CC(=O)Nc1ccc(NCC(=O)Nn2cnc3ccc(S(=O)(=O)Nc4ccc(NC(C)=O)cc4)cc3c2=O)cc1 | > 100 µM (inactive) | > 100 µM (inactive) | > 100 µM (inactive) | > 100 µM (inactive) | > 100 µM (inactive) | > 100 µM (inactive) |  | > 100 µM (inactive) | > 100 µM (inactive) | > 100 µM (inactive) | > 100 µM (inactive) | > 100 µM (inactive) | > 100 µM (inactive) | > 100 µM (inactive) | > 100 µM (inactive) | > 100 µM (inactive) | > 100 µM (inactive) | > 100 µM (inactive) | > 100 µM (inactive) | > 100 µM (inactive) |
| CCOc1ccccc1/N=C(/NC(=O)CC)SC | > 10 µM (inactive) |  | > 10 µM (inactive) |  | > 10 µM (inactive) | > 10 µM (inactive) |  | 67.6 µM (inactive) | 65.8 µM (inactive) |  | > 10 µM (inactive) | > 10 µM (inactive) | > 10 µM (inactive) | > 10 µM (inactive) | > 10 µM (inactive) | 81.1 µM (inactive) | > 10 µM (inactive) | > 10 µM (inactive) | > 10 µM (inactive) |  |
| COc1c(C)cc2c(C(C)C)c(O)c(O)c(C=O)c2c1O | 22.4 µM (inactive) |  | 40.6 µM (inactive) |  | 31.7 µM (inactive) | 26.4 µM (inactive) |  | 25.4 µM (inactive) | 27.7 µM (inactive) |  | 18.9 µM (inactive) | 23.2 µM (inactive) | 17.8 µM (inactive) | 25.6 µM (inactive) | 27 µM (inactive) | 20.7 µM (inactive) | 35.7 µM (inactive) | 35.3 µM (inactive) | 29.9 µM (inactive) |  |

— ChEMBL document CHEMBL1201862, “PubChem BioAssay data set” (2004)
